Consider ten compounds from ChEMBL document CHEMBL1201862, “PubChem BioAssay data set” (2004).

Among the test systems are RPMI-8226; SNB-19; MCF7; OVCAR-4; SK-MEL-2; MDA-MB-231; NCI-H23; UACC-62; OVCAR-5; COLO 205; SF-539; SN12C; SR; KM12; Malme-3M; U-251; LOX IMVI; RXF 393; HOP-62; NCI-H460.
Assay in all cases: growth of human tumour cells (NCI), 48 h

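How tested: cells in 96-well plates exposed to compound for 48 hours at five concentrations. The concentration for 50% growth inhibition is given as GI50.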 Active and inactive are the calls of the source. Cut-off read from the data, not from the text of the source: active = GI50 up to about 1.1 µM and inactive = higher.

Turning to `CN(C)c1ccc(-c2c(C#N)c(S)n(NS(=O)(=O)c3ccccc3)c(=O)c2C#N)cc1`, the GI50 with RPMI-8226 was 13.9 µM (inactive); in the test with SNB-19 it was 48.1 µM (inactive); in the test with MCF7 it was 24.2 µM (inactive); in the test on OVCAR-4, 25.6 µM (inactive); with SK-MEL-2, 35.9 µM (inactive); with MDA-MB-231, 22.3 µM (inactive). Moreover, the GI50 in the test on NCI-H23 is 30.8 µM (inactive); in the test with UACC-62, 20.5 µM (inactive); in the test on OVCAR-5, 55.6 µM (inactive); with COLO 205, 38.5 µM (inactive); with SF-539, 18.8 µM (inactive); in the test with SN12C it was 20.2 µM (inactive). In addition, the GI50 was 10 µM (inactive) in the test with SR; 16.2 µM (inactive) with KM12; 26.5 µM (inactive) in the test on Malme-3M; 24.1 µM (inactive) in the test with U-251; 22.1 µM (inactive) in the test with LOX IMVI; 20.4 µM (inactive) in the test with RXF 393.

Turning to `C[N+]1(CCC(=O)c2ccccc2)CCC2CCC(C2)C1` (centres undefined), the GI50 with RPMI-8226, with SNB-19, in the test on MCF7, in the test with OVCAR-4, in the test with SK-MEL-2 and with MDA-MB-231 was > 100 µM (inactive) each time. The GI50 in the test on NCI-H23, in the test with HOP-62, with UACC-62, with OVCAR-5, in the test on COLO 205 and in the test with NCI-H460 was > 100 µM (inactive) in each case. The GI50 in the test on SF-539, with SN12C, in the test with SR, in the test on KM12, in the test with Malme-3M and in the test on U-251 was > 100 µM (inactive) each time. For the same compound, the GI50 with LOX IMVI and with RXF 393 was > 100 µM (inactive) throughout.

As to `NC1=NCN(C2OC(CO)C(O)C2O)C(=O)N1` (centres undefined), the GI50 with RPMI-8226 is 1.8 µM (inactive); in the test with SNB-19, 159 µM (inactive); in the test with MCF7 it was 9.84 µM (inactive); with OVCAR-4, 139 µM (inactive); with SK-MEL-2, 0.977 µM (active); in the test on MDA-MB-231, 38.5 µM (inactive). Moreover, the GI50 with NCI-H23 is > 88.3 µM (inactive); with HOP-62 it was 152 µM (inactive); with UACC-62, 15.2 µM (inactive); in the test on OVCAR-5 it was 183 µM (inactive); with COLO 205, 131 µM (inactive); in the test on NCI-H460 it was 5.48 µM (inactive). The GI50 is 24.3 µM (inactive) with SF-539; 349 µM (inactive) with SN12C; 4.49 µM (inactive) in the test with SR; 14.1 µM (inactive) in the test on KM12; 10.9 µM (inactive) in the test with Malme-3M; 27.9 µM (inactive) with U-251. Besides, the GI50 with LOX IMVI is 2.23 µM (inactive); in the test with RXF 393, 8.99 µM (inactive).

As to `Cc1c(N2C(=O)C(Cl)C2c2ccc(Cl)cc2)c(=O)n(-c2ccccc2)n1C` (centres undefined), the GI50 in the test on RPMI-8226 is 16 µM (inactive); in the test on MCF7, 41.6 µM (inactive); in the test with OVCAR-4, > 100 µM (inactive); with SK-MEL-2, > 100 µM (inactive); with MDA-MB-231 it was > 100 µM (inactive); in the test with NCI-H23, 23.9 µM (inactive). The GI50 with HOP-62 was 42 µM (inactive); in the test with UACC-62 it was 75.2 µM (inactive); in the test on OVCAR-5 it was > 100 µM (inactive); with COLO 205 it was > 100 µM (inactive); in the test with NCI-H460, > 100 µM (inactive); in the test on SF-539 it was 36.1 µM (inactive). In addition, the GI50 is > 100 µM (inactive) in the test on SN12C; 26.4 µM (inactive) with SR; 27.7 µM (inactive) with KM12; > 100 µM (inactive) with Malme-3M; 35.3 µM (inactive) with U-251; 31 µM (inactive) in the test with LOX IMVI. Also, in the test with RXF 393, the GI50 was > 100 µM (inactive).

Take `Nc1cc2[nH]cnc2c(=O)[nH]1` [DEZAGUANINE]: the GI50 is 19.3 µM (inactive) in the test on RPMI-8226; > 264 µM (inactive) in the test on SNB-19; 21.9 µM (inactive) in the test on MCF7; 20.2 µM (inactive) in the test on OVCAR-4; 5.96 µM (inactive) in the test with SK-MEL-2; 49.9 µM (inactive) in the test with MDA-MB-231. Further, the GI50 in the test on NCI-H23 was 31.6 µM (inactive); in the test on HOP-62 it was 18.3 µM (inactive); with UACC-62, 12.9 µM (inactive); in the test on OVCAR-5, 45.5 µM (inactive); with COLO 205, 21.9 µM (inactive); in the test with NCI-H460 it was 10.4 µM (inactive). For the same compound, the GI50 was 16 µM (inactive) with SF-539; 14.6 µM (inactive) in the test on SN12C; 9.1 µM (inactive) in the test on SR; 51.6 µM (inactive) in the test with KM12; 47.6 µM (inactive) in the test with Malme-3M; 30.5 µM (inactive) with U-251. The GI50 in the test on LOX IMVI was 10.5 µM (inactive); in the test with RXF 393, 41.7 µM (inactive).

Regarding `CN1C(=O)CC2(C)c3cc(O)ccc3N(C)C12` (centres undefined), the GI50 in the test with RPMI-8226 is 31 µM (inactive); in the test on SNB-19, 46.9 µM (inactive); in the test on MCF7, 18.6 µM (inactive); in the test with OVCAR-4, 5.45 µM (inactive); with SK-MEL-2, 41.5 µM (inactive); in the test with MDA-MB-231, 19.5 µM (inactive). For the same compound, the GI50 in the test on NCI-H23 was 42.3 µM (inactive); in the test with HOP-62, 41 µM (inactive); in the test on UACC-62, 20.1 µM (inactive); in the test on OVCAR-5, 42.5 µM (inactive); in the test with COLO 205, 36.8 µM (inactive); in the test on NCI-H460, 50.9 µM (inactive). The GI50 with SF-539 was 64.1 µM (inactive); in the test on SN12C, 15.5 µM (inactive); in the test with SR, 18.5 µM (inactive); in the test with KM12, 31.3 µM (inactive); in the test on Malme-3M it was 54.5 µM (inactive); in the test on U-251, 19.2 µM (inactive). Further, the GI50 is 17.1 µM (inactive) with LOX IMVI and 29.4 µM (inactive) with RXF 393.

In the case of `O[C@H]1[C@H](O)[C@@H](Cn2nnc(-c3ccccc3)c2-c2ccccc2)OCO[C@@H]1Cn1nnc(-c2ccccc2)c1-c1ccccc1`, the GI50 in the test with RPMI-8226 is 2.32 µM (inactive); in the test on SNB-19, 8.89 µM (inactive); in the test on MCF7, 3.24 µM (inactive); in the test with OVCAR-4, 10.5 µM (inactive); with SK-MEL-2, 3.15 µM (inactive); in the test on MDA-MB-231, 6.47 µM (inactive). In addition, the GI50 in the test on NCI-H23 is 5.92 µM (inactive); in the test on HOP-62, 13.1 µM (inactive); in the test on UACC-62, 2.99 µM (inactive); in the test with OVCAR-5 it was 2.58 µM (inactive); with COLO 205 it was 4.99 µM (inactive); with NCI-H460, 3.67 µM (inactive). For the same compound, the GI50 was 3.16 µM (inactive) with SF-539; 2.36 µM (inactive) with SN12C; 2.04 µM (inactive) in the test with SR; 3.63 µM (inactive) in the test on KM12; 9.42 µM (inactive) in the test on Malme-3M; 3.73 µM (inactive) with U-251. Further, the GI50 in the test with LOX IMVI is 2.32 µM (inactive); with RXF 393, 2.97 µM (inactive).

Consider `Cc1ccc(C(=O)Nc2ccc(CP(=O)(O)O)cc2CP(=O)(O)O)cc1N`, for which the GI50 in the test on RPMI-8226, with SNB-19, with MCF7, with OVCAR-4, in the test on SK-MEL-2 and with MDA-MB-231 was > 100 µM (inactive) each time. Moreover, the GI50 in the test on NCI-H23, in the test on HOP-62, in the test with UACC-62, in the test with OVCAR-5, in the test with COLO 205 and in the test on SF-539 was > 100 µM (inactive) throughout. The GI50 with SN12C, with SR, in the test on KM12, in the test on Malme-3M, in the test on U-251 and in the test on LOX IMVI was > 100 µM (inactive) each time. Further, the GI50 in the test on RXF 393 is > 100 µM (inactive).

Take `CCOc1ccccc1/N=N/C1C(=O)N(C(=O)CC(=O)Nc2ccccc2C)N=C1C` (centres undefined): the GI50 with RPMI-8226 was 43.9 µM (inactive); with MCF7, > 100 µM (inactive); with OVCAR-4, > 100 µM (inactive); with SK-MEL-2 it was 38.4 µM (inactive); in the test with MDA-MB-231, 37.8 µM (inactive); with NCI-H23 it was 59.7 µM (inactive). Further, the GI50 is 19.9 µM (inactive) in the test on HOP-62; 21.3 µM (inactive) with UACC-62; > 100 µM (inactive) with OVCAR-5; > 100 µM (inactive) in the test with COLO 205; 43.7 µM (inactive) in the test on NCI-H460; 56 µM (inactive) in the test on SF-539. Further, the GI50 in the test on SN12C was > 100 µM (inactive); in the test on SR, > 100 µM (inactive); in the test on KM12, > 100 µM (inactive); in the test with Malme-3M it was > 100 µM (inactive); in the test on U-251, 19.4 µM (inactive); in the test on LOX IMVI, > 100 µM (inactive). The GI50 in the test with RXF 393 was 25.4 µM (inactive).

Turning to `O=C1NC(N2CCCC(CO)C2)=N/C1=C\c1ccc(Cl)cc1` (centres undefined), the GI50 in the test on RPMI-8226, in the test with SNB-19, in the test on MCF7, in the test on OVCAR-4, in the test with SK-MEL-2 and in the test on MDA-MB-231 was > 100 µM (inactive) each time. The GI50 with NCI-H23, with HOP-62, in the test on UACC-62, in the test with OVCAR-5, in the test with COLO 205 and in the test on SF-539 was > 100 µM (inactive) in each case. Also, the GI50 is > 100 µM (inactive) in the test with SN12C; > 100 µM (inactive) with SR; 63.7 µM (inactive) with KM12; > 100 µM (inactive) in the test with Malme-3M; > 100 µM (inactive) with U-251; 87.5 µM (inactive) with LOX IMVI. Besides, the GI50 in the test with RXF 393 was > 100 µM (inactive).
